Measurements: article PMC9127493 (Signal Transduction and Targeted Therapy, 2022)
pEC50: −log10 of the molar value.

Legend:
SARS-CoV-2 variant Delta = assay: microbe, parasite or virus in culture; assay type: cell-based; conditions: Severe acute respiratory syndrome coronavirus 2; n = 6
[1] = tested on: SARS-CoV-2 variant Omicron; assay: microbe, parasite or virus in culture; assay type: cell-based; conditions: Severe acute respiratory syndrome coronavirus 2; n = 6
Omicron variant = assay: Cytopathic effect (CPE) inhibition assay in Vero E6 cells; assay type: cell-based, SARS-CoV-2
SARS-CoV-2 variant Alpha = assay: microbe, parasite or virus in culture; assay type: cell-based; conditions: Severe acute respiratory syndrome coronavirus 2; n = 6
SARS-CoV-2 variant Beta = assay: microbe, parasite or virus in culture; assay type: cell-based; conditions: Severe acute respiratory syndrome coronavirus 2; n = 6
[2] = tested on: four SARS-CoV-2 variants of concern (VOCs), including Alpha, Beta, Delta and Omicron; assay type: cell-based; conditions: at 200 nM

Structure (SMILES)	pEC50 (SARS-CoV-2 variant Delta)	pEC50 [1]	rescue of cytopathic effect (Omicron variant)	pEC50 (SARS-CoV-2 variant Alpha)	pEC50 (SARS-CoV-2 variant Beta)	viral inhibition [2]
Cc1cccc(/C=N/Nc2cc(N3CCOCC3)nc(OCCc3ccccn3)n2)c1 [Apilimod]	> 8.16	> 8.16	significantly rescued the cytopathic effects	> 8.16	> 8.16	–
CCC(CC)COC(=O)[C@H](C)N[P@](=O)(OC[C@H]1O[C@@](C#N)(c2ccc3c(N)ncnn23)[C@H](O)[C@@H]1O)Oc1ccccc1 [Remdesivir]	6.03	6.21	–	6.22	6.31	–
COc1ccc(C(=O)Nc2cccc(C(F)(F)F)c2)cc1Nc1nc(-c2cccnc2)c2[nH]ccc2n1 [XMU-MP-7]	> 8.16	> 8.16	significantly rescued the cytopathic effects	> 8.16	7.91	complete viral inhibition
